{"source": "the supplement of paper PMC10627819", "key": {"[1]": {"tested_on": "B. subtilis 168", "assay": "fitness (endpoint OD595 vs no drug) (fraction); higher = more growth", "in_short": "(§1)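 With the first reading as background, OD595 was measured every 30 min for 14 h in 384-well plates kept at 37 °C and inoculated at OD595 0.01. TSB, LB Lennox or CY was the medium. Fitness is the optical density at the transition into stationary phase divided by the robust mean of no-drug control wells, with a cap of 1.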"}, "[2]": {"tested_on": "S. pneumoniae D39V", "assay": "fitness (endpoint OD595 vs no drug) (fraction); higher = more growth", "in_short": "as §1"}, "[3]": {"tested_on": "S. aureus DSM 20231", "assay": "Bliss interaction score (quartile over a dose matrix) (fitness difference); higher = more antagonism (negative = synergy)", "in_short": "(§2)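 Quartiles summarise the Bliss score over technical, biological and donor/recipient replicates, where the score is observed minus expected fitness under a product model. Expected fitness uses single-drug values inferred from combination data. Fitness is OD595 at entry into stationary phase over the plate's robust no-drug mean, capped at 1.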"}, "[4]": {"tested_on": "S. aureus Newman", "assay": "Bliss interaction score (quartile over a dose matrix) (fitness difference); higher = more antagonism (negative = synergy)", "in_short": "as §2"}, "[5]": {"tested_on": "B. subtilis 168", "assay": "Bliss interaction score (quartile over a dose matrix) (fitness difference); higher = more antagonism (negative = synergy)", "in_short": "as §2"}, "[6]": {"tested_on": "S. pneumoniae D39V", "assay": "Bliss interaction score (quartile over a dose matrix) (fitness difference); higher = more antagonism (negative = synergy)", "in_short": "as §2"}}}
{"molecule": "COc1cccc2c1C(=O)c1c(O)c3c(c(O)c1C2=O)C[C@@](O)(C(=O)CO)C[C@@H]3O[C@H]1C[C@H](N)[C@H](O)[C@H](C)O1", "note": "[Doxorubicin] + C[C@H]1COc2c(N3CCN(C)CC3)c(F)cc3c(=O)c(C(=O)O)cn1c23 [Levofloxacin]", "values": [{"measurement": "fitness", "setting": "[1]; first compound 0.625 µg/mL, partner 0.001 µg/mL, one replicate", "value": "≥ 1"}, {"measurement": "fitness", "setting": "[1]; first compound 0.625 µg/mL, partner 0.002 µg/mL", "value": 0.93}, {"measurement": "fitness", "setting": "[1]; first compound 0.625 µg/mL, partner 0.0039 µg/mL", "value": 0.927}, {"measurement": "fitness", "setting": "[1]; first compound 0.625 µg/mL, partner 0.0078 µg/mL, one replicate", "value": 0.888}, {"measurement": "fitness", "setting": "[1]; first compound 0.625 µg/mL, partner 0.0312 µg/mL", "value": 0.0411}, {"measurement": "fitness", "setting": "[1]; first compound 0.625 µg/mL, partner 0.0625 µg/mL", "value": 0.0463}, {"measurement": "fitness", "setting": "[1]; first compound 0.625 µg/mL, partner 0.125 µg/mL", "value": 0.0495}, {"measurement": "fitness", "setting": "[1]; first compound 1.25 µg/mL, partner 0.001 µg/mL, one replicate", "value": 0.98}, {"measurement": "fitness", "setting": "[1]; first compound 1.25 µg/mL, partner 0.002 µg/mL", "value": 0.901}, {"measurement": "fitness", "setting": "[1]; first compound 1.25 µg/mL, partner 0.0039 µg/mL", "value": 0.873}, {"measurement": "fitness", "setting": "[1]; first compound 1.25 µg/mL, partner 0.0078 µg/mL, one replicate", "value": 0.894}, {"measurement": "fitness", "setting": "[1]; first compound 1.25 µg/mL, partner 0.0312 µg/mL", "value": 0.0455}, {"measurement": "fitness", "setting": "[1]; first compound 1.25 µg/mL, partner 0.0625 µg/mL", "value": 0.0566}, {"measurement": "fitness", "setting": "[1]; first compound 1.25 µg/mL, partner 0.125 µg/mL", "value": 0.0562}, {"measurement": "fitness", "setting": "[1]; first compound 2.5 µg/mL, partner 0.001 µg/mL, one replicate", "value": 0.943}, {"measurement": "fitness", "setting": "[1]; first compound 2.5 µg/mL, partner 0.002 µg/mL", "value": 0.791}, {"measurement": "fitness", "setting": "[1]; first compound 2.5 µg/mL, partner 0.0039 µg/mL", "value": 0.73}, {"measurement": "fitness", "setting": "[1]; first compound 2.5 µg/mL, partner 0.0078 µg/mL, one replicate", "value": 0.567}, {"measurement": "fitness", "setting": "[1]; first compound 2.5 µg/mL, partner 0.0312 µg/mL", "value": 0.031}, {"measurement": "fitness", "setting": "[1]; first compound 2.5 µg/mL, partner 0.0625 µg/mL", "value": 0.0389}, {"measurement": "fitness", "setting": "[1]; first compound 2.5 µg/mL, partner 0.125 µg/mL", "value": 0.0379}, {"measurement": "fitness", "setting": "[2]; first compound 0.25 µg/mL, partner 0.1725 µg/mL", "value": 0.853}, {"measurement": "fitness", "setting": "[2]; first compound 0.25 µg/mL, partner 0.2 µg/mL", "value": 0.904}, {"measurement": "fitness", "setting": "[2]; first compound 0.25 µg/mL, partner 0.345 µg/mL", "value": 0.776}, {"measurement": "fitness", "setting": "[2]; first compound 0.25 µg/mL, partner 0.4 µg/mL", "value": 0.834}, {"measurement": "fitness", "setting": "[2]; first compound 0.25 µg/mL, partner 0.69 µg/mL", "value": 0.509}, {"measurement": "fitness", "setting": "[2]; first compound 0.5 µg/mL, partner 0.1725 µg/mL", "value": 0.941}, {"measurement": "fitness", "setting": "[2]; first compound 0.5 µg/mL, partner 0.2 µg/mL", "value": 0.942}, {"measurement": "fitness", "setting": "[2]; first compound 0.5 µg/mL, partner 0.345 µg/mL", "value": 0.871}, {"measurement": "fitness", "setting": "[2]; first compound 0.5 µg/mL, partner 0.4 µg/mL", "value": 0.831}, {"measurement": "fitness", "setting": "[2]; first compound 0.5 µg/mL, partner 0.69 µg/mL", "value": 0.571}, {"measurement": "fitness", "setting": "[2]; first compound 1 µg/mL, partner 0.1725 µg/mL", "value": 0.875}, {"measurement": "fitness", "setting": "[2]; first compound 1 µg/mL, partner 0.2 µg/mL", "value": 0.854}, {"measurement": "fitness", "setting": "[2]; first compound 1 µg/mL, partner 0.345 µg/mL", "value": 0.798}, {"measurement": "fitness", "setting": "[2]; first compound 1 µg/mL, partner 0.4 µg/mL", "value": 0.736}, {"measurement": "fitness", "setting": "[2]; first compound 1 µg/mL, partner 0.69 µg/mL", "value": 0.548}, {"measurement": "fitness", "setting": "[2]; first compound 1 µg/mL, partner 0.8 µg/mL", "value": 0.342}, {"measurement": "Bliss interaction score", "setting": "[3]", "value": 0.0678}, {"measurement": "Bliss interaction score", "setting": "[4]", "value": 0.133}, {"measurement": "Bliss interaction score", "setting": "[5]", "value": 0.0423}, {"measurement": "Bliss interaction score", "setting": "[6]", "value": -0.0424}]}
{"molecule": "C[C@H]1c2cccc(O)c2C(=O)C2=C(O)[C@]3(O)C(=O)C(C(N)=O)=C(O)[C@@H](N(C)C)[C@@H]3[C@@H](O)[C@@H]21", "note": "[Doxycycline] + CN(C)c1cc(NC(=O)CNC(C)(C)C)c(O)c2c1C[C@H]1C[C@H]3[C@H](N(C)C)C(O)=C(C(N)=O)C(=O)[C@@]3(O)C(O)=C1C2=O [Tigecycline]", "values": [{"measurement": "fitness", "setting": "[1]; first compound 0.02 µg/mL, partner 0.039 µg/mL", "value": 0.94}, {"measurement": "fitness", "setting": "[1]; first compound 0.02 µg/mL, partner 0.078 µg/mL", "value": 0.818}, {"measurement": "fitness", "setting": "[1]; first compound 0.02 µg/mL, partner 0.125 µg/mL, one replicate", "value": 0.99}, {"measurement": "fitness", "setting": "[1]; first compound 0.02 µg/mL, partner 0.156 µg/mL", "value": 0.85}, {"measurement": "fitness", "setting": "[1]; first compound 0.02 µg/mL, partner 0.25 µg/mL, one replicate", "value": 0.873}, {"measurement": "fitness", "setting": "[1]; first compound 0.02 µg/mL, partner 0.5 µg/mL, one replicate", "value": 0.962}, {"measurement": "fitness", "setting": "[1]; first compound 0.04 µg/mL, partner 0.039 µg/mL", "value": 0.824}, {"measurement": "fitness", "setting": "[1]; first compound 0.04 µg/mL, partner 0.078 µg/mL", "value": 0.773}, {"measurement": "fitness", "setting": "[1]; first compound 0.04 µg/mL, partner 0.125 µg/mL, one replicate", "value": 0.994}, {"measurement": "fitness", "setting": "[1]; first compound 0.04 µg/mL, partner 0.156 µg/mL", "value": 0.792}, {"measurement": "fitness", "setting": "[1]; first compound 0.04 µg/mL, partner 0.25 µg/mL, one replicate", "value": 0.849}, {"measurement": "fitness", "setting": "[1]; first compound 0.04 µg/mL, partner 0.5 µg/mL, one replicate", "value": 0.895}, {"measurement": "fitness", "setting": "[1]; first compound 0.08 µg/mL, partner 0.078 µg/mL", "value": 0.619}, {"measurement": "fitness", "setting": "[1]; first compound 0.08 µg/mL, partner 0.125 µg/mL, one replicate", "value": 0.761}, {"measurement": "fitness", "setting": "[1]; first compound 0.08 µg/mL, partner 0.156 µg/mL", "value": 0.635}, {"measurement": "fitness", "setting": "[1]; first compound 0.08 µg/mL, partner 0.25 µg/mL, one replicate", "value": 0.611}, {"measurement": "fitness", "setting": "[1]; first compound 0.08 µg/mL, partner 0.5 µg/mL, one replicate", "value": 0.697}, {"measurement": "fitness", "setting": "[2]; first compound 0.003875 µg/mL, partner 0.65 µg/mL, one replicate", "value": "≥ 1"}, {"measurement": "fitness", "setting": "[2]; first compound 0.003875 µg/mL, partner 1.3 µg/mL, one replicate", "value": "≥ 1"}, {"measurement": "fitness", "setting": "[2]; first compound 0.003875 µg/mL, partner 2.6 µg/mL, one replicate", "value": "≥ 1"}, {"measurement": "fitness", "setting": "[2]; first compound 0.00775 µg/mL, partner 0.65 µg/mL, one replicate", "value": 1}, {"measurement": "fitness", "setting": "[2]; first compound 0.00775 µg/mL, partner 1.3 µg/mL, one replicate", "value": 0.963}, {"measurement": "fitness", "setting": "[2]; first compound 0.00775 µg/mL, partner 2.6 µg/mL, one replicate", "value": 0.954}, {"measurement": "fitness", "setting": "[2]; first compound 0.0155 µg/mL, partner 0.65 µg/mL", "value": 0.969}, {"measurement": "fitness", "setting": "[2]; first compound 0.0155 µg/mL, partner 1.3 µg/mL", "value": 0.922}, {"measurement": "fitness", "setting": "[2]; first compound 0.0155 µg/mL, partner 2.6 µg/mL", "value": 0.903}, {"measurement": "fitness", "setting": "[2]; first compound 0.031 µg/mL, partner 0.65 µg/mL", "value": 0.902}, {"measurement": "fitness", "setting": "[2]; first compound 0.031 µg/mL, partner 1.3 µg/mL", "value": 0.831}, {"measurement": "fitness", "setting": "[2]; first compound 0.031 µg/mL, partner 2.6 µg/mL", "value": 0.796}, {"measurement": "fitness", "setting": "[2]; first compound 0.062 µg/mL, partner 0.65 µg/mL", "value": 0.885}, {"measurement": "fitness", "setting": "[2]; first compound 0.062 µg/mL, partner 1.3 µg/mL", "value": 0.773}, {"measurement": "fitness", "setting": "[2]; first compound 0.062 µg/mL, partner 2.6 µg/mL", "value": 0.732}, {"measurement": "Bliss interaction score", "setting": "[3]", "value": -0.104}, {"measurement": "Bliss interaction score", "setting": "[4]", "value": -0.0649}, {"measurement": "Bliss interaction score", "setting": "[5]", "value": 0.0765}, {"measurement": "Bliss interaction score", "setting": "[6]", "value": 0.0303}]}
